# Laboratory results from patent US11129782B2, “Derivatives of PPD useful for coloring hair and skin” (National University of Singapore, priority 2017, dated 2021).
# Where “and” joins values, the source holds several entries; their conditions need not be identical. Identical values can stand only once.
# Experiments:
# [1] = tested on: cysteine peptide (Ac-RFAACAA-COOH); experiment: Direct Peptide Reactivity Assay, cysteine peptide; details: for % of Cysteine depletion, Avg / % of Cysteine depletion, Rep 2 / % of Cysteine depletion, Rep 3 / Reactivity Class: 1:10; for % of Cysteine depletion, Rep 1: peptide 0.02 mM : test chemical 0.2 mM (1:10); for Reactivity Class: cysteine
# Experimental: For cysteine DPRA, an additional step was performed.
# (§1) The mass spectrometric analysis was performed by use of a AB SCIEX QTRAP 5500 tandem mass spectrometry (MS/MS) system (AB SCIEX, Framingham, Mass., USA) operating in triple quadrupole positive mode (ESI+) equipped with an AB Sciex Turbo Ion Spray interface. Acquisition and analysis of data were performed with Analyst software ver. 1.6.2 (Applied Biosystems).
# ILT3 = ILT3 surface expression on THP-1 by flow cytometry; assay type: cell-based, human; details: in comparison to DCNB
# Experimental: (§2) For cytokine profiling in THP-1, supernatants from wells were collected and then used for cytokine analysis by a Chemokine immunosorbent assay Bio-legend ELISA Max kit. The levels of available IL-8 protein from THP-1 cell supernatants was estimated using this kit which are regulated upon activation of THP-1 model. Surface receptor expression of human CD-86, CD-54, MHC-I and IL-T3 were analyzed by flow cytometry using standard BD FACS analyzer with PE and FITC fluorescent labeled antibodies from Biolegend and e Bioscience.
# (§3) In order to understand the effect of modified PPD hairdyes on THP-1 immune sensitization, a certain degree of Cytotoxicity at CV75% viable where 25% cell death is required before evaluation of supernatants in THP-1 models for expression of cytokine IL-8 and receptor expression of CD86, CD54, MHC-I and IL-T3 surface receptors upon treatment with standard PPD and modified hair dye compounds. Most allergens show a specific dose-dependent alteration of CD86 and/or CD54 expression or secretion of cytokine profiles. But depending on chemical, the alteration pattern may vary.
# HaCaT cells = experiment: In vitro cell cytotoxicity (MTT) assay on HaCaT cells; assay type: cell-based, human; details: for IC50: 72 h incubation, MTT
# From the text: HaCaT (human, adult, low calcium, high temperature, human adult skin keratinocytes) cells were obtained from the IMB (Institute of Medical Biology) Skin Cell Bank. Fetal bovine serum (FBS), Dulbecco's minimum essential medium (DMEM) and trypsin EDTA solution were purchased from GE healthcare life sciences, Utah. Penicillin/streptomycin, dimethyl sulfoxide (DMSO), and phosphate buffered saline (PBS) were from Fisher Scientific (Singapore). Para-phenylenediamine (PPD) was purchased from Sigma Aldrich (Singapore). PPD analogues such as Dimer, trimer, ethyl hexyl para-phenylenediamine (EHPPD), hexyl para-phenylenediamine (HPPD), Bandrowski base (BB) were synthesized in house.
# Cell viability was essentially determined using the MTT assay as described in the literature. The HaCaT cells were grown in DMEM with 10% FBS and 1% penicillin/streptomycin. The cells in T-75 cm^2 culture flasks were incubated with 5% CO2 at 37° C. in a humidified incubator. The HaCaT cells were grown to expected confluency and then they were harvested by trypsinizing the cell with 0.25% trypsin/EDTA and incubated at 37° C. for 5 min to obtain the complete cell detachment. After the incubation, cell pellets were resuspended, and washed twice with 1×PBS. The cell suspension in 1×PBS was counted and adjusted to 1×10^5/mL. A HaCaT keratinocyte suspension (100 μL in 1×PBS) with a cell concentration of 1×10^5 cells/mL) and a test solution (100 μL in milli-Q water) were combined in each well of two 96-well plates. Test solutions with a desired concentration were prepared by serial dilutions of the stock solutions with 1×PBS.
# For the cytotoxicity experiment, cells were seeded at a density of 5×10^3 in 200 ul of medium into each well of 96-well plates. Cells were seeded as three sets of four replicates for each concentration. After 24 h of incubation, the cells were washed with PBS and cultured for 72 h with 200 ul of 10% FBS containing DMEM medium, together with the different concentrations of the test compounds ranging from 500 μM to 1.9 μM for PPD and analogues 1-5 and standard in a serial dilution. Then the medium was removed and 100 μl of MTT [3-(4,5-dimethylthiazol-2yl)-2,5-diphenyl-2H-tetrazolium bromide](1 mg/ml) (Alfa Aesar, Singapore) in PBS was added. At the end of 4 h incubation, the plates were removed from the incubator and plates were shaken for 5 min. The absorbance at 570 nm was determined using Bio-Tek plate reader. The cell viability rates were calculated from absorbance readings and represented as percentages of control value (untreated cells).
# [2] = tested on: lysine peptide (Ac-RFAAKAA-COOH); experiment: Direct Peptide Reactivity Assay, lysine peptide; details: for % of Lysine depletion, Avg / % of Lysine depletion, Rep 2 / % of Lysine depletion, Rep 3 / Reactivity Class: 1:50; for % of Lysine depletion, Rep 1: peptide 0.02 mM : test chemical 1 mM (1:50); for Reactivity Class: lysine
# Experimental: as §1
# [3] = Skin permeation in vertical Franz diffusion cells; assay type: in vitro ADME, porcine; details: 8 h; for recovery at 8 h, 1 % w/v: pig, read-out: % Parent compound Recovery (mean); for Penetration profile PPD vs derivatives (times less than PPD): ratio of PPD penetration to that of the compound
# Experimental: Porcine ears were generously provided by the NUS Department of Surgery. The ears were frozen at −80° C. until use (up to 3 months) and thawed at room temperature on the day preceding the experiment. Prior to the experiment, the skin was separated from the cartilage and dermatomed to a thickness of ˜1.0 mm using an Acculan™ 3Ti dermatome (Aesculap, Inc., B. Braun, USA).
# The PPD and derivatives were dissolved in deionized water at 1% w/v. The PPD and PPD derivatives 1-5 solutions were purged with argon gas to minimize oxidation of the donor solution.
# Skin penetration studies were carried out using vertical Franz diffusion cells (PermeGear, USA) immersed in a 37° C. water bath. The donor and receptor volumes were 900 µL and 5 mL, respectively; the mean surface area of penetration was 0.64 cm^2. Upon insertion of the skin pieces into the Franz cells, the skin was equilibrated for 45 min with PBS in the receptor compartment. After equilibration, the skin's trans-epidermal water loss (TEWL) was measured using an Aquaflux AF300 (Biox, UK) to assess the integrity of the skin's stratum corneum barrier. The donor solution, consisting of PPD or derivative 1-5 (n=3 Franz cells each), was then added to the donor compartment and the penetration experiments were conducted for 8 h. The receptor solutions were continuously stirred with magnetic stirrers. At fixed time points, aliquots of 200 μL were taken from the receptor solution of each cell and the receptor solution topped up with 200 μL of fresh PBS. At the end of the experiment, the donor and receptor solutions were removed and the cells dismantled. For the purpose of mass balance on the PPD, PPD derivatives 1-5 the skin pieces and swabs of their outer surfaces were collected and stored in acetonitrile for PPD or derivative 1-5 extraction. The donor solution as well as PBS used to thoroughly wash each part of the Franz cells were also collected.
# PPD, PPD derivatives 1-5 and metabolite concentrations in all permeation and mass balance samples were measured by LCMS. PPD steady state fluxes and permeability coefficients were calculated by fitting the solution to Fick's second law of diffusion at the steady state to the linear part of each experimental cumulative amount curve.
# The validated method LCMS was applied to quantify PPD, PPD derivative 1-5 and metabolites from skin permeation study samples. FIGS. 3 and 4 show LCMS spectra for the identification of PPD and PPD derivatives 1 and 2 and metabolites from skin permeation study experiment.
# [4] = tested on: cysteine and lysine peptides; experiment: Direct Peptide Reactivity Assay, mean of cysteine and lysine depletion (FIG. 12); details: for Sensitizing potential predicted from mean peptide depletion: cysteine 1:10 / lysine 1:50 model
# Experimental: Direct reactivity of test chemical to lysine-based synthetic peptide was determined in reactions containing 100 mM ammonium acetate buffer (pH 10.2). The final concentration of lysine peptide was 20 μM in a final reaction volume of 0.3 ml. Direct reactivity of test chemicals to cysteine-based synthetic peptide was determined in 100 mM Sodium Phosphate buffer of pH 7.5.
# For the DPRA, incubation mixtures were prepared using each peptide to test compound ratios of both 1:10 for cysteine peptide and 1:50 for lysine peptide, according to Table 19. […] Sample reactions were initiated by adding 3 μl of a test chemical stock solution for cysteine and 15 μl stock solution for lysine peptide. These mixtures were then placed in a temperature-controlled shaking incubator at 25° C.
# At each time point (20 mins/24 hours), the incubation mixtures were quenched with 75 μL of 95% ACN/H2O, and mildly vortexed (600 rpm, 3 seconds). For Lysine DPRA experiment, 10 μl of aliquot was diluted with 2% ACN/H2O, vortexed and stored at −80° C. until analysis by LC-MS/MS. For cysteine DPRA, an additional step was performed. 10 μl of cysteine reaction mixture, at time points 20 min and 24 h were diluted in 180 μl of 2% ACN/H2O. To which, a 10 μl aliquot of a 16 mM dithiothreitol solution (prepared in water) was then added, and samples were heated in a 45° C. oven for 30 min, then allowed to cool to room temperature prior to analysis. The peptide depletion (PD) percentage was obtained using this equation.
# IL-8 = IL-8 ELISA on THP-1 cell supernatants; assay type: cell-based, human; details: preliminary ELISA, CV75
# Experimental: as §2, §3
SMILES,Reactivity Class ([1]; 24 h),% Parent compound Penetrated (mean) ([3]; 1% W/V applied) [%],% converted to metabolite (mean) ([3]; 1% W/V applied) [%],"% of Cysteine depletion, Avg ([1]; 20 min) [%]","% of Cysteine depletion, Rep 2 ([1]; 20 min) [%]","% of Cysteine depletion, Rep 3 ([1]; 20 min) [%]","% of Cysteine depletion, Rep 1 ([1]; 20 min) [%]","% of Cysteine depletion, Avg ([1]; 24 h) [%]","% of Cysteine depletion, Rep 2 ([1]; 24 h) [%]","% of Cysteine depletion, Rep 3 ([1]; 24 h) [%]","% of Cysteine depletion, Rep 1 ([1]; 24 h) [%]","IC50 (HaCaT cells; Homo sapiens, HaCaT, 72 h) [µM]","% of Lysine depletion, Avg ([2]; 20 min) [%]","% of Lysine depletion, Rep 2 ([2]; 20 min) [%]","% of Lysine depletion, Rep 3 ([2]; 20 min) [%]","% of Lysine depletion, Rep 1 ([2]; 20 min) [%]","% of Lysine depletion, Avg ([2]; 24 h) [%]","% of Lysine depletion, Rep 2 ([2]; 24 h) [%]","% of Lysine depletion, Rep 3 ([2]; 24 h) [%]",Sensitizing potential predicted from mean peptide depletion [4],further results
"Nc1ccc(Nc2ccc(Nc3ccc(N)cc3)cc2)cc1 [PPD derivative 2, N^1,N^4-bis(4-aminophenyl)-1,4-benzenediamine]",High,0.00173,0.008,54.0,53.6,52.6,55.6,64.1,65.6,61.2,65.6,4.14,11.2,11.8,11.8,10.1,9.08,9.79,8.28,high sensitizing agents,"Reactivity Class ([1]; 20 min): High; ILT3 (inhibitory receptor) expression (ILT3): increased; Fold increase in cytotoxicity compared to PPD 1 (HaCaT cells): 6 fold; % of Lysine depletion, Rep 1 ([2]; 24 h): 8.97%; Reactivity Class ([2]; 20 min): Low; Reactivity Class ([2]; 24 h): Low; recovery at 8 h, 1 % w/v ([3]; 1% W/V applied): 96.4%; Penetration profile PPD vs derivatives (times less than PPD) ([3]; listed as PPD 2): 93 and 93.6"
"O=[N+]([O-])c1ccc(Cl)c([N+](=O)[O-])c1 [DNCB, reference compound]",,,,,,,,,,,,,,,,,,,,,IL-8 expression (IL-8): increased expression
"COCc1cc(N)ccc1N [MEPPD, 2-(methoxymethyl)benzene-1,4,-diamine, reference compound]",,0.02,0.019,,,,,,,,,,,,,,,,,strong sensitizer,"ILT3 (inhibitory receptor) expression (ILT3): increased; Fold increase in IC50 compared to PPD (HaCaT cells): 19 fold; IC50 (HaCaT cells): 544 µM; IL-8 expression (IL-8): increased expression; % Parent compound Recovery (mean) ([3]; 1% W/V applied): 95.39%; Penetration profile PPD vs derivatives (times less than PPD) [3]: 8 and 8.1; Penetration profile PPD vs derivatives (times less than PPD) ([3]; listed as ME-PPD): about 7.5; Mean peptide depletion ([4]; mean of cysteine (1:10) and lysine (1:50), FIG. 12): 53.2%"

# Now from value to compound, other results behind:
Reactivity Class ([1]; 24 h),% Parent compound Penetrated (mean) ([3]; 1% W/V applied) [%],% converted to metabolite (mean) ([3]; 1% W/V applied) [%],SMILES,"% of Cysteine depletion, Avg ([1]; 20 min) [%]","% of Cysteine depletion, Rep 2 ([1]; 20 min) [%]","% of Cysteine depletion, Rep 3 ([1]; 20 min) [%]","% of Cysteine depletion, Rep 1 ([1]; 20 min) [%]","% of Cysteine depletion, Avg ([1]; 24 h) [%]","% of Cysteine depletion, Rep 2 ([1]; 24 h) [%]","% of Cysteine depletion, Rep 3 ([1]; 24 h) [%]","% of Cysteine depletion, Rep 1 ([1]; 24 h) [%]","IC50 (HaCaT cells; Homo sapiens, HaCaT, 72 h) [µM]","% of Lysine depletion, Avg ([2]; 20 min) [%]","% of Lysine depletion, Rep 2 ([2]; 20 min) [%]","% of Lysine depletion, Rep 3 ([2]; 20 min) [%]","% of Lysine depletion, Rep 1 ([2]; 20 min) [%]","% of Lysine depletion, Avg ([2]; 24 h) [%]","% of Lysine depletion, Rep 2 ([2]; 24 h) [%]","% of Lysine depletion, Rep 3 ([2]; 24 h) [%]",Sensitizing potential predicted from mean peptide depletion [4],further results
Moderate,0.00045,0.0123,"CCCCC(CC)COc1cc(N)ccc1N (centres unmarked) [PPD derivative 3, 2-((2-ethylhexyl)oxy)benzene-1,4-diamine]",31.9,32,31.4,32.4,32.7,31.7,31.8,34.8,31,6.2,5.63,7.89,5.07,15.48,19.7,13.8,moderate sensitizer,"Reactivity Class ([1]; 20 min, listed as Derivative 3): Moderate; Reactivity Class ([1]; 20 min, listed as derivative 3): moderate; % of Lysine depletion, Rep 1 ([2]; 24 h): 12.8%; Reactivity Class ([2]; 20 min): No or Minimal; Reactivity Class ([2]; 24 h): Low; recovery at 8 h, 1 % w/v ([3]; 1% W/V applied): 94.5%; Penetration profile PPD vs derivatives (times less than PPD) ([3]; listed as PPD 3): 360"
Moderate,0.000322,0.0121,"CCCCCCOc1cc(N)ccc1N [PPD derivative 4, 2-hexyloxy-1,4-diaminobenzene]",32.8,31.8,33.8,30.8,40.8,41,41.5,40,34.8,1.1,0.845,1.41,1.13,13.4,15,13.9,moderate sensitizer,"Reactivity Class ([1]; 20 min, listed as Derivative 4): Moderate; Reactivity Class ([1]; 20 min, listed as derivative 4): moderate; IC50 (HaCaT cells): 34.8 µM; % of Lysine depletion, Rep 1 ([2]; 24 h): 11.3%; Reactivity Class ([2]; 20 min): No or Minimal; Reactivity Class ([2]; 24 h): Low; recovery at 8 h, 1 % w/v ([3]; 1% W/V applied): 94.3%; Penetration profile PPD vs derivatives (times less than PPD) ([3]; listed as PPD 4): 503.1"
